Patent publication US6541196B2, “Method for cAMP production” (Jackson State University, priority 2000, dated 2003)

How the values were obtained:
[1] = test system: differentiated C2C12 cells; test: cAMP production in differentiated C2C12 myoblasts; format: cell-based, mouse; conditions: isoproterenol 10, 0.1 or 0.001 μM, 37° C., 10 min
Method: Medium was aspirated from differentiated C2C12 cells, and monolayers were washed with PBS. Monolayers were then overlaid with PBS at 37° C. containing the following treatments: isoproterenol (ISO) at 10^−5, 10^−7, and 10^−9 M forskolin (positive control) at 5×10^−5 M, and negative control (no treatments). A cAMP phosphodiesterase inhibitor, imidazolidin, (10^−6 M) was added to all incubations to prevent enzymatic degradation of cAMP. Culture dishes were placed in a humidified incubator under an atmosphere of 95% air and 5% CO2 at 37° C. for 5-10 min. After the incubation, aliquots of incubation medium were quickly removed, chilled, and stored at −20° C. for cAMP determination (within 3 days). Cells were washed and frozen for later protein determination (Bradford, 1976). The cAMP assays were done as prescribed by the manufacturer of the cAMP quantitation kit (Diagnostic Products Corporation, Los Angeles, Calif.); this procedure is patterned after a procedure described by Tovey et al. The procedure entails a competition of ^3H cAMP for cAMP binding protein, separation of free (unbound) cAMP by adsorption onto dextran-coated charcoal, followed by counting of bound ^3H by liquid scintillation. […] Thus, cAMP production was determined as the sum of assayable cAMP in the PBS and within the cells.

MDCKE11 cells = test: cAMP production in renal tubular epithelial cells (MDCK); format: cell-based, canine; conditions: P<0.001 when compared to all other groups
Method: The culture medium was aspirated from RTEc monolayers, and the cells were washed three times with PBS. Madin-Darby canine kidney cell (MDCKc) monolayers were then overlaid with 5 mls PBS at room temperature on 100 mm culture dishes. cAMP phosphodiesterase inhibitor was added at a final concentration of 10 μM to all incubations to prevent the enzymatic degradation of cellular cAMP. Isoproterenol (ISO) at 10^−5M, bFGF (basic fibroblast growth factor) (20 ng/ml), or both were added to the treatment groups. Cells were incubated under an atmosphere of 95% air and 5% CO2 at 37° C. for 1, 3, 5, 10, 20, and 40 minute periods. Following the incubation period, 1.0 ml/plate aliquot samples were transferred to 12×75 mm polypropylene tubes, and immediately placed in a 0° C. ice bath. […] Total cellular protein was determined using the BCA (bicinchoninic acid) protein assay (Pierce, Rockford, Ill.) according to the manufacturers specification. The cAMP assays were done as prescribed by the manufacturer of the cAMP quantitation kit (Diagnostic Products Corporation, Los Angeles, Calif.); this procedure is patterned after a procedure described by Tovey et al. The procedure entails a competition of ^3H cAMP for cAMP binding protein, separation of free (unbound) cAMP by adsorption onto dextrancoated charcoal, followed by counting of bound ^3H by liquid scintillation (Izevbigie, Pediatr. Nephrol., 2000).

HFMc = test: cAMP accumulation in human fetal mesangial cells (extracellular cAMP, competitive 3H-cAMP binding kit); format: cell-based; conditions: 10 min; for cAMP accumulation compared with control cells: confluent serum-starved HFMc, Ang II 1 μM, bFGF 20 ng/ml, p<0.05
Method: The culture medium was aspirated from HFMc monolayers, and the cells were washed three times with PBS. Cell monolayers were then overlaid with PBS at room temperature on 100 mm culture dishes. A cAMP phosphodiesterase inhibitor was added to a final concentration of 10 μM to all incubations to prevent the enzymatic degradation of cellular cAMP. Isoproterenol (ISO) at 10^−5M, with or without bFGF (basic fibroblast growth factor) (20 ng/ml), or three doses of ISO (10^−5, 10^−7, 10^−9M) with 10^−6M angiotensin II (Ang II) were added to the treatment groups. Cells were incubated under an atmosphere of 95% air and 5% CO2 at 37° C. for 10 minutes. Following the incubation period, 1.0 ml/plate aliquot samples were transferred to 12×75 mm polypropylene tubes, and immediately placed in a 0° C. ice bath. The cell monolayers and 1.0 ml aliquots were stored at −20° C. for protein determination and cAMP analysis respectively. Total cellular protein was determined using the BCA (bicinchoninic acid) protein assay (Pierce, Rockford, Ill.) according to the manufacturers specification. The extracellular cAMP per plate was quantified using Diagnostic Corporation (Los Angeles, Calif.) kits according to the manufacturer's specifications; this procedure is patterned after a procedure described by Tovey et al. The procedure entails a competition of ^3H cAMP for cAMP binding protein, separation of free (unbound) cAMP by adsorption onto dextrancoated charcoal, followed by counting of bound ^3H by liquid scintillation (Izevbigie, Pediatr. Res., 2000).

| Molecule | cAMP production [1] | cAMP production (MDCKE11 cells) | cAMP accumulation compared with control cells (HFMc) | modulation of isoproterenol-induced cAMP accumulation (HFMc; serum-starved HFMc, Ang II (1 µM) with different concentrations of isoproterenol, significant at 0.1 and 10 μM isoproterenol (p<0.05)) |
| --- | --- | --- | --- | --- |
| CC(C)NCC(O)c1ccc(O)c(O)c1 (centres unmarked) [Isoproterenol, isoproterenol] | dose-dependent cAMP production | induction of cAMP production | – | – |
| angiotensin II (DRVYIHPF; Angiotensin-2; UniProt P01019 25-32, looked up) [Ang II] | – | – | not | decreased |
| basic fibroblast growth factor [bFGF] | – | – | modest but significant increase | – |
